Experimental data published in patent publication US20210045385A1, “PYRIDAZINONE-SUBSTITUTED KETOXIMES AS HERBICIDES” (FMC Corporation, priority 2018, published 2021).

How the values were obtained:
Format in all cases: in vivo
[1] = test system: sedge umbrella (small-flower umbrella sedge, Cyperus difformis); assay: Test D flooded paddy test, visual plant response rating; details: 250 g ai/ha, scale 0 to 100 (0 no effect, 100 complete control), 13 to 15 d
Outline: (§1)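 2-leaf plants, flooded 3 cm, cpd into paddy water; greenhouse 13–15 d; visual rating vs controls, 0 = no effect, 100 = complete control; dash = no result.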

[2] = test system: duck salad (Heteranthera limosa); assay: as above; details: 250 g ai/ha, scale 0 to 100 (0 no effect, 100 complete control), 13 to 15 d
Outline: as §1

[3] = test system: rice (Oryza sativa); assay: as above; details: 250 g ai/ha, scale 0 to 100 (0 no effect, 100 complete control), 13 to 15 d
Outline: as §1

[4] = test system: barnyardgrass (Echinochloa crus-galli); assay: as above; details: 250 g ai/ha, scale 0 to 100 (0 no effect, 100 complete control), 13 to 15 d
Outline: as §1

[5] = test system: pigweed (Amaranthus retroflexus); assay: Test C preemergence, visual plant response rating; details: Test C, 0 is no effect, 100 is complete control
Outline: (§2)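 Compounds in a non-phytotoxic solvent with surfactant were applied as a directed soil spray preemergence or to 2–10 cm, one- to two-leaf plants postemergence, in loam–sand soil. After about 10 d in a greenhouse, injury was visually rated against untreated controls on a 0–100 scale (100 = complete control).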

[6] = test system: kochia (Bassia scoparia); assay: Test C preemergence, visual plant response rating; details: Test C, 0 is no effect, 100 is complete control
Outline: as §2

[7] = test system: ragweed (common ragweed, Ambrosia artemisiifolia); assay: Test C preemergence, visual plant response rating; details: Test C, 0 is no effect, 100 is complete control
Outline: as §2

[8] = test system: Italian ryegrass (Lolium mutiflorum); assay: Test C preemergence, visual plant response rating; details: Test C, 0 is no effect, 100 is complete control
Outline: as §2

[9] = test system: barnyardgrass (Echinochloa crus-galli); assay: Test C preemergence, visual plant response rating; details: Test C, 0 is no effect, 100 is complete control
Outline: as §2

[10] = test system: foxtail, giant (giant foxtail, Setaria faberi); assay: Test C preemergence, visual plant response rating; details: Test C, 0 is no effect, 100 is complete control
Outline: as §2

[11] = test system: pigweed (Amaranthus retroflexus); assay: Test C postemergence, visual plant response rating
Outline: as §2

[12] = test system: wheat (Triticum aestivum); assay: Test C postemergence, visual plant response rating
Outline: as §2

[13] = test system: blackgrass (Alopecurus myosuroides); assay: Test C postemergence, visual plant response rating
Outline: as §2

[14] = test system: corn (Zea mays); assay: Test C postemergence, visual plant response rating
Outline: as §2

[15] = test system: kochia (Bassia scoparia); assay: Test C postemergence, visual plant response rating
Outline: as §2

[16] = test system: ragweed (common ragweed, Ambrosia artemisiifolia); assay: Test C postemergence, visual plant response rating
Outline: as §2

[17] = test system: Italian ryegrass (Lolium mutiflorum); assay: Test C postemergence, visual plant response rating
Outline: as §2

[18] = test system: barnyardgrass (Echinochloa crus-galli); assay: Test C postemergence, visual plant response rating
Outline: as §2

[19] = test system: galium (catchweed bedstraw, Galium aparine); assay: Test C postemergence, visual plant response rating
Outline: as §2

[20] = test system: foxtail, giant (giant foxtail, Setaria faberi); assay: Test C postemergence, visual plant response rating
Outline: as §2

[21] = Test C, postemergence, 125 g ai/ha

SMILES | Plant response rating, Sedge, Umbrella (Flood) [1] | Plant response rating, Ducksalad (Flood) [2] | Plant response rating, Rice (Flood) [3] | Plant response rating, Barnyardgrass (Flood) [4] | Pigweed plant response rating (0 to 100 scale) ([5]; 31 g ai/ha) | Pigweed plant response rating (0 to 100 scale) ([5]; 125 g ai/ha) | Kochia plant response rating (0 to 100 scale) ([6]; 31 g ai/ha) | Kochia plant response rating (0 to 100 scale) ([6]; 125 g ai/ha) | Ragweed plant response rating (0 to 100 scale) ([7]; 31 g ai/ha) | Ragweed plant response rating (0 to 100 scale) ([7]; 125 g ai/ha) | Ryegrass, Italian plant response rating (0 to 100 scale) ([8]; 31 g ai/ha) | Ryegrass, Italian plant response rating (0 to 100 scale) ([8]; 125 g ai/ha) | Barnyardgrass plant response rating (0 to 100 scale) ([9]; 31 g ai/ha) | Barnyardgrass plant response rating (0 to 100 scale) ([9]; 125 g ai/ha) | Foxtail, Giant plant response rating (0 to 100 scale) ([10]; 31 g ai/ha) | Foxtail, Giant plant response rating (0 to 100 scale) ([10]; 125 g ai/ha) | Pigweed plant response rating (0 to 100 scale) ([11]; Postemergence, 31 g ai/ha) | Pigweed plant response rating (0 to 100 scale) [11, 21] | Wheat plant response rating (0 to 100 scale) ([12]; Postemergence, 31 g ai/ha) | Wheat plant response rating (0 to 100 scale) [12, 21] | further results
C#CCO/N=C(\c1ccc(F)c(Cl)c1)c1c(O)c(C)nn(C)c1=O [Compound 230] | 0 | 0 | 0 | 0 | 10 | 30 | 0 | 0 | 0 | 0 | 0 | 10 | 0 | 0 | 0 | 30 | 0 | 20 | 0 | 60 | Blackgrass plant response rating (0 to 100 scale) ([13]; Postemergence, 31 g ai/ha): 0; Blackgrass plant response rating (0 to 100 scale) [13, 21]: 10; Corn plant response rating (0 to 100 scale) ([14]; Postemergence, 31 g ai/ha): 0; Corn plant response rating (0 to 100 scale) [14, 21]: 0; Kochia plant response rating (0 to 100 scale) ([15]; Postemergence, 31 g ai/ha): 0; Kochia plant response rating (0 to 100 scale) [15, 21]: 0; Ragweed plant response rating (0 to 100 scale) ([16]; Postemergence, 31 g ai/ha): 10; Ragweed plant response rating (0 to 100 scale) [16, 21]: 20; Ryegrass, Italian plant response rating (0 to 100 scale) ([17]; Postemergence, 31 g ai/ha): 0; Ryegrass, Italian plant response rating (0 to 100 scale) [17, 21]: 40; Barnyardgrass plant response rating (0 to 100 scale) ([18]; Postemergence, 31 g ai/ha): 0; Barnyardgrass plant response rating (0 to 100 scale) [18, 21]: 20; Galium plant response rating (0 to 100 scale) ([19]; Postemergence, 31 g ai/ha): 50; Galium plant response rating (0 to 100 scale) [19, 21]: 70; Foxtail, Giant plant response rating (0 to 100 scale) ([20]; Postemergence, 31 g ai/ha): 10; Foxtail, Giant plant response rating (0 to 100 scale) [20, 21]: 30
CO/N=C(/c1cccc(Br)c1)c1c(O)c(C)nn(C)c1=O [Compound 234] | 0 | 0 | 0 | 0 | 0 | 0 | 0 | 0 | 10 | 40 | 40 | 90 | 0 | 0 | 0 | 20 | 10 | 30 | 0 | 0 | Blackgrass plant response rating (0 to 100 scale) ([13]; Postemergence, 31 g ai/ha): 10; Blackgrass plant response rating (0 to 100 scale) [13, 21]: 0; Corn plant response rating (0 to 100 scale) ([14]; Postemergence, 31 g ai/ha): 0; Corn plant response rating (0 to 100 scale) [14, 21]: 0; Kochia plant response rating (0 to 100 scale) ([15]; Postemergence, 31 g ai/ha): 30; Kochia plant response rating (0 to 100 scale) [15, 21]: 70; Ragweed plant response rating (0 to 100 scale) ([16]; Postemergence, 31 g ai/ha): 40; Ragweed plant response rating (0 to 100 scale) [16, 21]: 80; Ryegrass, Italian plant response rating (0 to 100 scale) ([17]; Postemergence, 31 g ai/ha): 50; Ryegrass, Italian plant response rating (0 to 100 scale) [17, 21]: 70; Barnyardgrass plant response rating (0 to 100 scale) ([18]; Postemergence, 31 g ai/ha): 10; Barnyardgrass plant response rating (0 to 100 scale) [18, 21]: 30; Galium plant response rating (0 to 100 scale) ([19]; Postemergence, 31 g ai/ha): 80; Galium plant response rating (0 to 100 scale) [19, 21]: 90; Foxtail, Giant plant response rating (0 to 100 scale) ([20]; Postemergence, 31 g ai/ha): 10; Foxtail, Giant plant response rating (0 to 100 scale) [20, 21]: 30
CO/N=C(\c1cccc(Br)c1)c1c(O)c(C)nn(C)c1=O [Compound 239] | 0 | 0 | 0 | 0 | 0 | 10 | 0 | 10 | 10 | 50 | 10 | 50 | 0 | 0 | 0 | 10 | 20 | 60 | 0 | 0 | Blackgrass plant response rating (0 to 100 scale) ([13]; Postemergence, 31 g ai/ha): 0; Blackgrass plant response rating (0 to 100 scale) [13, 21]: 0; Corn plant response rating (0 to 100 scale) ([14]; Postemergence, 31 g ai/ha): 0; Corn plant response rating (0 to 100 scale) [14, 21]: 0; Kochia plant response rating (0 to 100 scale) ([15]; Postemergence, 31 g ai/ha): 40; Kochia plant response rating (0 to 100 scale) [15, 21]: 60; Ragweed plant response rating (0 to 100 scale) ([16]; Postemergence, 31 g ai/ha): 50; Ragweed plant response rating (0 to 100 scale) [16, 21]: 70; Ryegrass, Italian plant response rating (0 to 100 scale) ([17]; Postemergence, 31 g ai/ha): 50; Ryegrass, Italian plant response rating (0 to 100 scale) [17, 21]: 60; Barnyardgrass plant response rating (0 to 100 scale) ([18]; Postemergence, 31 g ai/ha): 10; Barnyardgrass plant response rating (0 to 100 scale) [18, 21]: 30; Galium plant response rating (0 to 100 scale) ([19]; Postemergence, 31 g ai/ha): 70; Galium plant response rating (0 to 100 scale) [19, 21]: 90; Foxtail, Giant plant response rating (0 to 100 scale) ([20]; Postemergence, 31 g ai/ha): 0; Foxtail, Giant plant response rating (0 to 100 scale) [20, 21]: 20
Cc1nn(C)c(=O)c(/C(=N/OCCO)c2cccc3cc(Cl)ccc23)c1O [Compound 240] | 0 | 0 | 0 | 15 | 50 | 100 | 0 | 0 | 0 | 10 | 0 | 0 | 0 | 0 | 10 | 80 | 70 | 80 | 0 | 0 | Blackgrass plant response rating (0 to 100 scale) ([13]; Postemergence, 31 g ai/ha): 0; Blackgrass plant response rating (0 to 100 scale) [13, 21]: 10; Corn plant response rating (0 to 100 scale) ([14]; Postemergence, 31 g ai/ha): 0; Corn plant response rating (0 to 100 scale) [14, 21]: 0; Kochia plant response rating (0 to 100 scale) ([15]; Postemergence, 31 g ai/ha): 0; Kochia plant response rating (0 to 100 scale) [15, 21]: 0; Ragweed plant response rating (0 to 100 scale) ([16]; Postemergence, 31 g ai/ha): 0; Ragweed plant response rating (0 to 100 scale) [16, 21]: 0; Ryegrass, Italian plant response rating (0 to 100 scale) ([17]; Postemergence, 31 g ai/ha): 0; Ryegrass, Italian plant response rating (0 to 100 scale) [17, 21]: 0; Barnyardgrass plant response rating (0 to 100 scale) ([18]; Postemergence, 31 g ai/ha): 0; Barnyardgrass plant response rating (0 to 100 scale) [18, 21]: 20; Galium plant response rating (0 to 100 scale) ([19]; Postemergence, 31 g ai/ha): 20; Galium plant response rating (0 to 100 scale) [19, 21]: 50; Foxtail, Giant plant response rating (0 to 100 scale) ([20]; Postemergence, 31 g ai/ha): 0; Foxtail, Giant plant response rating (0 to 100 scale) [20, 21]: 0
